Reference: US10597383B2, “Bicyclic proline compounds” (Genentech, Inc., priority 2016, dated 2020)
pIC50: −log10 of the molar value.

Molecular target: human TRPA1 (Homo sapiens (Human), UniProt O75762)
Assay: hTRPA1 CHO Ca2+ AUC EVO (IC50); FLIPR Tetra block of cinnamaldehyde induced calcium influx
Type: cell-based
Conditions: Table 1; CHO cells expressing TRPA1; 75 uM cinnamaldehyde (~EC80) as agonist
Method: IC50 ([…]) of compounds on the human and rat TRPA1 channels were determined using a FLIPR Tetra instrument. CHO cells expressing TRPA1 were plated into 384-well plates, incubated overnight at 37° C., and loaded with BD calcium indicator dye for 1 hr at 37° C. followed by 15 minutes. at room temperature. The assay buffer was Hank's Balanced Salt Solution (HBSS) containing 20 mM HEPES (pH readjusted to 7.4) along with 0.02% BSA.
Following dye load and plate cool down, compounds were added to the cells using FLIPR Tetra. Plates were then incubated with compounds for 20 minutes at room temperature prior to adding agonist. Following this incubation, ˜EC80 concentration of cinnamaldehyde (75 uM for human TRPA1 and 45 uM for rat TRPA1) was added to active the channels and block of cinnamaldehyde induced calcium influx was measured.
IC50 values were fit with a standard Hill function, keeping the Hill coefficient (n) fixed to 1.5. Fixing the Hill coefficient will generally reduce variability of the IC50 determination. The IC50 values were individually examined to make sure the MIN and MAX points were set correctly prior to validation of the results.

Sequence of human TRPA1 (O75762 whole entry): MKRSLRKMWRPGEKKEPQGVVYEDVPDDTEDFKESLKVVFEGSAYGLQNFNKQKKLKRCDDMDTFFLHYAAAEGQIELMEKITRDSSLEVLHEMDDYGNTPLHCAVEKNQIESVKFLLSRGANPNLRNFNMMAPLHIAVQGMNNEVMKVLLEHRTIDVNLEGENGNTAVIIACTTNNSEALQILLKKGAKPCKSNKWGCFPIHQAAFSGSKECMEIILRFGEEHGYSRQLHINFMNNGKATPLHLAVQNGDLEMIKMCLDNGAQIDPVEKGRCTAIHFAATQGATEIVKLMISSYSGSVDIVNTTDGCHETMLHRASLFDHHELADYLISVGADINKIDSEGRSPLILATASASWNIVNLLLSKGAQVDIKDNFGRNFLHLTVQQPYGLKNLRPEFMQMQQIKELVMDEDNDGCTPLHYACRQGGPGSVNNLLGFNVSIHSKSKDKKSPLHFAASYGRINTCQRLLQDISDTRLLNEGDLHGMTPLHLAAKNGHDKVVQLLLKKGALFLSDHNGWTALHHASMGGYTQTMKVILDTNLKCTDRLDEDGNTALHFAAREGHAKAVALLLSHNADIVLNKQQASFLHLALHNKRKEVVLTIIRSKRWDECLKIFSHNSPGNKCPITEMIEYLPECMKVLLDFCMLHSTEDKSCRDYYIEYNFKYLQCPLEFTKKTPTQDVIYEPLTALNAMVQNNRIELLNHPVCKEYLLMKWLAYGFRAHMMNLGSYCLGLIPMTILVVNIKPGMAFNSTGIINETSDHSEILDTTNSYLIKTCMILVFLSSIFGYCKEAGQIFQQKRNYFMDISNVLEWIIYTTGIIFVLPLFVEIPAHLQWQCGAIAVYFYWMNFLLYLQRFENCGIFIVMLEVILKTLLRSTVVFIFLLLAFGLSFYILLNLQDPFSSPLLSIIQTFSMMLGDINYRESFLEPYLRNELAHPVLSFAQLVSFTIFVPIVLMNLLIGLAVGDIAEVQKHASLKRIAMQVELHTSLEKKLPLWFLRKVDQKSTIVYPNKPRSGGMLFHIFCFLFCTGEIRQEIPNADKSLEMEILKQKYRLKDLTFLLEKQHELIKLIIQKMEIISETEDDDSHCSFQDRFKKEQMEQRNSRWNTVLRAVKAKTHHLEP

Compared with `O=C(NCc1cc(Cl)nc(-c2cnc(C(F)(F)F)nc2)c1)[C@@H]1C2CC(C2)N1S(=O)(=O)c1ccc(F)cc1` [(2S)-N-[[2-chloro-6-[2-(trifluoromethyl)pyrimidin-5-yl]-4-pyridyl]methyl]-3-(4-fluorophenyl)sulfonyl-3-azabicyclo[2.1.1]hexane-2-carboxamide], `O=C(NCc1cc(F)cc(-c2cnc(C(F)(F)F)nc2)c1)[C@@H]1C2CC(C2)N1S(=O)(=O)c1ccc(F)cc1` [(2S)-3-(4-fluorophenyl)sulfonyl-N-[[3-fluoro-5-[2-(trifluoromethyl)pyrimidin-5-yl]phenyl]methyl]-3-azabicyclo[2.1.1]hexane-2-carboxamide] is 0.28 log units lower in pIC50: 8.33 for the first, 8.05 for the second. The first is the more potent here.

First: O=C(NCc1cc(-c2cnc(C(F)(F)F)nc2)ncc1OC(F)(F)F)[C@@H]1C2CC(C2)N1S(=O)(=O)c1ccc(F)cc1 [(2S)-3-(4-fluorophenyl)sulfonyl-N-[[5-(trifluoromethoxy)-2-[2-(trifluoromethyl)pyrimidin-5-yl]-4-pyridyl]methyl]-3-azabicyclo[2.1.1]hexane-2-carboxamide]
Second: O=C(NCc1cc(-c2cnc(C(F)(F)F)nc2)ncc1C(F)F)[C@@H]1C2CC(C2)N1S(=O)(=O)c1ccc(F)c(F)c1 [(2S)-N-[[5-(difluoromethyl)-2-[2-(trifluoromethyl)pyrimidin-5-yl]-4-pyridyl]methyl]-3-(3,4-difluorophenyl)sulfonyl-3-azabicyclo[2.1.1]hexane-2-carboxamide]
The pIC50 of the first is 0.51 log units higher: 8.56 for the first, 8.05 for the second. The first is the more potent here.

`O=C(NCc1cc(-c2cnc(C(F)(F)F)nc2)nc(C2CC2)n1)[C@@H]1C2CC(C2)N1S(=O)(=O)c1ccc(F)cc1` [(2S)-N-[[2-cyclopropyl-6-[2-(trifluoromethyl)pyrimidin-5-yl]pyrimidin-4-yl]methyl]-3-(4-fluorophenyl)sulfonyl-3-azabicyclo[2.1.1]hexane-2-carboxamide] gave a pIC50 of 8.67.

Same assay, conditions: Table 3; CHO cells expressing TRPA1; 75 uM cinnamaldehyde (~EC80) as agonist

`O=C(NCc1cc(-c2cnc(C(F)(F)F)nc2)c(Cl)cn1)[C@@H]1C2CC(C2)N1S(=O)(=O)c1ccc(F)cc1` [compound 7, (2S)-N-[[5-chloro-4-[2-(trifluoromethyl)pyrimidin-5-yl]-2-pyridyl]methyl]-3-(4-fluorophenyl)sulfonyl-3-azabicyclo[2.1.1]hexane-2-carboxamide] and `O=C(NCc1cc(-c2cnc(C(F)(F)F)nc2)c(F)cn1)[C@@H]1C2CC(C2)N1S(=O)(=O)c1ccc(F)cc1` [compound 6, (2S)-3-(4-fluorophenyl)sulfonyl-N-[[5-fluoro-4-[2-(trifluoromethyl)pyrimidin-5-yl]-2-pyridyl]methyl]-3-azabicyclo[2.1.1]hexane-2-carboxamide] are within 0.2 log units of each other in pIC50: 7.68 for the first, 7.77 for the second.

Going from `O=C(NCc1cc(-c2cnc(C(F)(F)F)nc2)nc(C2CC2)c1)[C@@H]1C2CC(C2)N1S(=O)(=O)c1ccc(F)cc1` [compound 33, (2S)-N-[[2-cyclopropyl-6-[2-(trifluoromethyl)pyrimidin-5-yl]-4-pyridyl]methyl]-3-(4-fluorophenyl)sulfonyl-3-azabicyclo[2.1.1]hexane-2-carboxamide] to `O=C(NCc1cc(-c2cnc(C(F)(F)F)nc2)cc(C2CC2)n1)[C@@H]1C2CC(C2)N1S(=O)(=O)c1ccc(F)cc1` [compound 32, (2S)-N-[[6-cyclopropyl-4-[2-(trifluoromethyl)pyrimidin-5-yl]-2-pyridyl]methyl]-3-(4-fluorophenyl)sulfonyl-3-azabicyclo[2.1.1]hexane-2-carboxamide], the pIC50 falls from 8.45 to 8.14 (0.31 log units).

Going from `O=C(NCc1cc(-c2cnc(C(F)(F)F)nc2)nc(OCC(F)(F)F)n1)[C@@H]1C2CC(C2)N1S(=O)(=O)c1ccc(F)cc1` [compound 35, (2S)-3-(4-fluorophenyl)sulfonyl-N-[[2-(2,2,2-trifluoroethoxy)-6-[2-(trifluoromethyl)pyrimidin-5-yl]pyrimidin-4-yl]methyl]-3-azabicyclo[2.1.1]hexane-2-carboxamide] to `O=C(NCc1cc(-c2cnc(C(F)(F)F)nc2)nc(C2CC2)n1)[C@@H]1C2CC(C2)N1S(=O)(=O)c1ccc(F)cc1` [compound 10, (2S)-N-[[2-cyclopropyl-6-[2-(trifluoromethyl)pyrimidin-5-yl]pyrimidin-4-yl]methyl]-3-(4-fluorophenyl)sulfonyl-3-azabicyclo[2.1.1]hexane-2-carboxamide], the pIC50 rises from 8.37 to 8.67 (0.30 log units).

`O=C(NCc1cc(F)cc(-c2ccc(C(F)(F)F)nc2)c1)[C@@H]1C2CC(C2)N1S(=O)(=O)c1ccc(F)cc1` [compound 20, (2S)-3-(4-fluorophenyl)sulfonyl-N-[[3-fluoro-5-[6-(trifluoromethyl)-3-pyridyl]phenyl]methyl]-3-azabicyclo[2.1.1]hexane-2-carboxamide] and `O=C(NCc1cc(-c2ccc(C(F)(F)F)nc2)ccc1F)[C@@H]1C2CC(C2)N1S(=O)(=O)c1ccc(F)cc1` [compound 17, (2S)-3-(4-fluorophenyl)sulfonyl-N-[[2-fluoro-5-[6-(trifluoromethyl)-3-pyridyl]phenyl]methyl]-3-azabicyclo[2.1.1]hexane-2-carboxamide] are within 0.2 log units of each other in pIC50: 8.21 for the first, 8.22 for the second.

Going from `Cn1nc(C(F)(F)F)cc1-c1cc(F)cc(CNC(=O)[C@@H]2C3CC(C3)N2S(=O)(=O)c2ccc(F)cc2)c1` [compound 21, (2S)-N-[[3-fluoro-5-[2-methyl-5-(trifluoromethyl)pyrazol-3-yl]phenyl]methyl]-3-(4-fluorophenyl)sulfonyl-3-azabicyclo[2.1.1]hexane-2-carboxamide] to `O=C(NCc1cc(Cl)nc(-c2cnc(C(F)(F)F)nc2)c1)[C@@H]1C2CC(C2)N1S(=O)(=O)c1ccc(F)cc1` [compound 5, (2S)-N-[[2-chloro-6-[2-(trifluoromethyl)pyrimidin-5-yl]-4-pyridyl]methyl]-3-(4-fluorophenyl)sulfonyl-3-azabicyclo[2.1.1]hexane-2-carboxamide], the pIC50 rises from 7.56 to 8.33 (0.77 log units).

Going from `O=C(NCc1cc(-c2cnc(C(F)(F)F)nc2)ccc1F)[C@@H]1C2CC(C2)N1S(=O)(=O)c1ccc(F)cc1` [compound 16, (2S)-3-(4-fluorophenyl)sulfonyl-N-[[2-fluoro-5-[2-(trifluoromethyl)pyrimidin-5-yl]phenyl]methyl]-3-azabicyclo[2.1.1]hexane-2-carboxamide] to `N#Cc1ccc(-c2cnc(C(F)(F)F)nc2)cc1CNC(=O)[C@@H]1C2CC(C2)N1S(=O)(=O)c1ccc(F)cc1` [compound 9, (2S)-N-[[2-cyano-5-[2-(trifluoromethyl)pyrimidin-5-yl]phenyl]methyl]-3-(4-fluorophenyl)sulfonyl-3-azabicyclo[2.1.1]hexane-2-carboxamide], the pIC50 falls from 8.00 to 7.77 (0.23 log units).

Compared with `COc1nn(-c2cnc(C(F)(F)F)nc2)cc1CNC(=O)[C@@H]1C2CC(C2)N1S(=O)(=O)c1ccc(F)cc1` [compound 34, (2S)-3-(4-fluorophenyl)sulfonyl-N-[[3-methoxy-1-[2-(trifluoromethyl)pyrimidin-5-yl]pyrazol-4-yl]methyl]-3-azabicyclo[2.1.1]hexane-2-carboxamide], `CC12CC(C1)[C@@H](C(=O)NCc1cc(-c3cnc(C(F)(F)F)nc3)c(F)cn1)N2S(=O)(=O)c1ccc(F)cc1` [compound 12, (2S)-3-(4-fluorophenyl)sulfonyl-N-[[5-fluoro-4-[2-(trifluoromethyl)pyrimidin-5-yl]-2-pyridyl]methyl]-4-methyl-3-azabicyclo[2.1.1]hexane-2-carboxamide] is 0.68 log units lower in pIC50: 7.72 for the first, 7.04 for the second. The first is the more potent here.
